SMILES strings stand for the structures.

For this experiment, the target named is T1, hTLR7 (Homo sapiens, UniProt Q9NYK1).
T1 sequence (Q9NYK1 27-1049): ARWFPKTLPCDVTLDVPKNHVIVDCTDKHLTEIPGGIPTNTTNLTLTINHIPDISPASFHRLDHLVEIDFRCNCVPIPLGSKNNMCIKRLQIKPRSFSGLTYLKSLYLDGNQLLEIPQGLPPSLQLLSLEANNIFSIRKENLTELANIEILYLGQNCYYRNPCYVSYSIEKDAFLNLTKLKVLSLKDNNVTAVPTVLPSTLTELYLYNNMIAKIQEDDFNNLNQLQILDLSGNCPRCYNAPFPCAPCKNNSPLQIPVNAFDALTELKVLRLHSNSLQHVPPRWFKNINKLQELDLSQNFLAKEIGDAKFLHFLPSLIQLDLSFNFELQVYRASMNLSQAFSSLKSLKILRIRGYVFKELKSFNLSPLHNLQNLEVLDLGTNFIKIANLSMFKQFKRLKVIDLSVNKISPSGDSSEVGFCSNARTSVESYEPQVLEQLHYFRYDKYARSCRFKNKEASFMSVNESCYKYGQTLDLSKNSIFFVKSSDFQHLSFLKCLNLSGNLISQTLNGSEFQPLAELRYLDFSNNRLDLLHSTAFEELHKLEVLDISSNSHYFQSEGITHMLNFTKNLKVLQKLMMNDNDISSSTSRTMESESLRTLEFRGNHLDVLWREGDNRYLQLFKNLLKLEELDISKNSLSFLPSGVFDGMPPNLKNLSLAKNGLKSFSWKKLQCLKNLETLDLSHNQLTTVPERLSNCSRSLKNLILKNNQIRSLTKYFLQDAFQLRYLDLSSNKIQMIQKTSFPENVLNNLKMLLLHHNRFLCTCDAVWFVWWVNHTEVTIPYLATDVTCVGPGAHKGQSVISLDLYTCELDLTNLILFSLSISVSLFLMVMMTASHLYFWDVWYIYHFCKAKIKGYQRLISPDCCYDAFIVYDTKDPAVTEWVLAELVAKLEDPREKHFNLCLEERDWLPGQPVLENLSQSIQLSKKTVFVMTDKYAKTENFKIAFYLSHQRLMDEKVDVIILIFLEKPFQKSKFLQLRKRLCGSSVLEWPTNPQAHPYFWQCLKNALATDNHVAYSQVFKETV
Kind of experiment: HEK293-Blue-hTLR-7 cells assay (SEAP reporter, R848 stimulation). The class given is cell-based. To be noted: HEK293-Blue-hTLR7 cells, R848, 20 hrs; 0.003 is the lowest tested concentration; read-out: HEK/hTLR7 IC50. The protocol:
The following tests were carried out in order to determine the activity of the compounds of formula (I) or (Ia) in HEK293-Blue-hTLR-7/8/9 cells assay.
HEK293-Blue-hTLR-7 cells assay:
A stable HEK293-Blue-hTLR-7 cell line was purchased from InvivoGen (Cat.#: hkb-htlr7, San Diego, California, USA). These cells were originally designed for studying the stimulation of human TLR7 by monitoring the activation of NF-κB. A SEAP (secreted embryonic alkaline phosphatase) reporter gene was placed under the control of the IFN-β minimal promoter fused to five NF-κB and AP-1-binding sites. The SEAP was induced by activating NF-κB and AP-1 via stimulating HEK-Blue hTLR7 cells with TLR7 ligands. Therefore the reporter expression was declined by TLR7 antagonist under the stimulation of a ligand, such as R848 (Resiquimod), for incubation of 20 hrs. The cell culture supernatant SEAP reporter activity was determined using QUANTI-Blue™ kit (Cat.#: rep-qb1, Invivogen, San Diego, Ca, USA) at a wavelength of 640 nm, a detection medium that turns purple or blue in the presence of alkaline phosphatase.
HEK293-Blue-hTLR7 cells were incubated at a density of 250,000∼450,000 cells/mL in a volume of 170 µL in a 96-well plate in Dulbecco's Modified Eagle's medium (DMEM) containing 4.5 g/L glucose, 50 U/mL penicillin, […], […], 2 mM L-glutamine, 10% (v/v) heat-inactivated fetal bovine serum with addition of 20 µL test compound in a serial dilution in the presence of final DMSO at 1% and 10 µL of 20uM R848 in above DMEM, perform incubation under 37 °C in a CO2 incubator for 20 hrs. Then 20 µL of the supernatant from each well was incubated with 180 µL Quanti-blue substrate solution at 37 °C for 2 hrs and the absorbance was read at 620∼655 nm using a spectrophotometer. The signalling pathway that TLR7 activation leads to downstream NF-κB activation has been widely accepted, and therefore similar reporter assay was modified for evaluating TLR7 antagonist.
Turning to `C[C@@H]1CN(c2ccc(C#N)c3ncsc23)C[C@H](CN2Cc3cc(N4CCNCC4)cnc3C2)O1` [Example 25, 7-[(2R,6S)-2-methyl-6-[(3-piperazin-1-yl-5,7-dihydropyrrolo[3,4-b]pyridin-6-yl)methyl]morpholin-4-yl]-1,3-benzothiazole-4-carbonitrile], the IC50 turned out to be 11 nM.
Consider `C[C@@H]1CN(c2ccc(Cl)c3ncccc23)C[C@H](CN2Cc3ccc(N4CCNCC4)cc3C2)O1` [Example 31, (2R,6S)-4-(8-chloro-5-quinolyl)-2-methyl-6-[(5-piperazin-1-ylisoindolin-2-yl)methyl]morpholine], for which the IC50 was 29 nM.
Then `C[C@@H]1CN(c2ccc(C#N)c3nccnc23)C[C@H](CN2Cc3ccc(N4CC5COCC(C4)N5)cc3C2)O1` [Example 49, 8-[(2R,6S)-2-methyl-6-[[5-(3-oxa-7,9-diazabicyclo[3.3.1]nonan-7-yl)isoindolin-2-yl]methyl]morpholin-4-yl]quinoxaline-5-carbonitrile], with 50 nM.
Under `C[C@@H]1CN(c2ccc(Cl)c3nccnc23)C[C@H](CN2CCc3cc(N4CCNCC4)ccc3C2)O1` [Example 34, (2R,6S)-4-(8-chloroquinoxalin-5-yl)-2-methyl-6-[(6-piperazin-1-yl-3,4-dihydro-1H-isoquinolin-2-yl)methyl]morpholine] stands 23 nM; under `C[C@@H]1CN(c2ccc(C#N)c3ncccc23)C[C@H](CN2CCc3nc(N4CCNCC4)ccc3C2)O1` [Example 79, 5-[(2R,6S)-2-methyl-6-[(2-piperazin-1-yl-7,8-dihydro-5H-1,6-naphthyridin-6-yl)methyl]morpholin-4-yl]quinoline-8-carbonitrile], 15 nM.
Under `C[C@@H]1CN(c2ccc(C#N)c3ncccc23)C[C@H](CN2Cc3ccc(N4CCNCC4CO)cc3C2)O1` (stereo partly drawn) [Example 73, 5-[(2S,6R)-2-[[5-[2-(hydroxymethyl)piperazin-1-yl]isoindolin-2-yl]methyl]-6-methyl-morpholin-4-yl]quinoline-8-carbonitrile] stands 48 nM; under `C[C@@H]1CN(c2ccc(C#N)c3nccnc23)C[C@H](CN2Cc3ccc(N4CCNC5(CC5)C4)cc3C2)O1` [Example 38, 8-[(2S,6R)-2-[[5-(4,7-diazaspiro[2.5]octan-7-yl)isoindolin-2-yl]methyl]-6-methyl-morpholin-4-yl]quinoxaline-5-carbonitrile], 23 nM.
As to `C[C@@H]1CN(c2ccc(C#N)c3ncccc23)C[C@H](CN2Cc3cc(N4CCNCC4)cc(F)c3C2)O1` [Example 59, 5-[(2S,6R)-2-[(4-fluoro-6-piperazin-1-yl-isoindolin-2-yl)methyl]-6-methyl-morpholin-4-yl]quinoline-8-carbonitrile], the IC50 worked out at 18 nM.
Then `C[C@@H]1CN(c2ccc(C#N)c3ncccc23)C[C@H](CNCc2ccc(N3CCNCC3)cc2)O1` [Example 86, 5-[(2R,6S)-2-methyl-6-[[(4-piperazin-1-ylphenyl)methylamino]methyl]morpholin-4-yl] quinoline-8-carbonitrile], with 15 nM; and `C[C@@H]1CN(c2ccc(C#N)c3ncccc23)C[C@H](CN2Cc3ccc(N4CCN[C@@H](C)C4)cc3C2)O1` [Example 64, 5-[(2R,6S)-2-methyl-6-[[5-[(3S)-3-methylpiperazin-1-yl]isoindolin-2-yl]methyl]morpholin-4-yl]quinoline-8-carbonitrile], with 40 nM.
On to `C[C@@H]1CN(c2ccc(C#N)c3ncccc23)C[C@H](CN2Cc3ccccc3C2)O1` [Example R3, 5-[(2S,6R)-2-(isoindolin-2-ylmethyl)-6-methyl-morpholin-4-yl]quinoline-8-carbonitrile, reference compound], for which the IC50 is 186 nM.
Under `C[C@@H]1CN(c2ccc(C#N)c3ncccc23)C[C@H](CN2Cc3cc(N4CCN(C)CC4)cc(F)c3C2)O1` [Example 69, 5-[(2S,6R)-2-[[4-fluoro-6-(4-methylpiperazin-1-yl)isoindolin-2-yl]methyl]-6-methyl-morpholin-4-yl]quinoline-8-carbonitrile] stands 43 nM; under `C[C@@H]1CN(c2ccc(C#N)c3ncccc23)C[C@H](CN2Cc3ccc(N4CCNCC4)cc3C(O)C2)O1` (stereo partly drawn) [Example 75, 5-[(2S,6R)-2-[(4-hydroxy-6-piperazin-1-yl-3,4-dihydro-1H-isoquinolin-2-yl)methyl]-6-methyl-morpholin-4-yl]quinoline-8-carbonitrile], 42 nM.
Regarding `C[C@@H]1CN(c2ccc(C#N)c3nccnc23)C[C@H](CN2Cc3cc(N4CCNCC4)cnc3C2)O1` [Example 30, 8-[(2R,6S)-2-methyl-6-[(3-piperazin-1-yl-5,7-dihydropyrrolo[3,4-b]pyridin-6-yl)methyl]morpholin-4-yl]quinoxaline-5-carbonitrile], the IC50 is 16 nM.
Under `C[C@@H]1CN(c2ccc(C#N)n3nccc23)C[C@H](CN2Cc3ccc(C4CCNC4)cc3C2)O1` (stereo partly drawn) [Example 9, 4-[(2R,6S)-2-methyl-6-[(5-pyrrolidin-3-ylisoindolin-2-yl)methyl]morpholin-4-yl]pyrazolo[1,5-a]pyridine-7-carbonitrile] stands 195 nM; under `C[C@@H]1CN(c2ccc(C#N)c3nccnc23)C[C@H](CN2CCc3cc(N4CCNCC4)ccc3C2)O1` [Example 13, 8-[(2R,6S)-2-methyl-6-[(6-piperazin-1-yl-3,4-dihydro-1H-isoquinolin-2-yl)methyl]morpholin-4-yl]quinoxaline-5-carbonitrile], 3 nM; under `C[C@@H]1CN(c2ccc(C#N)n3nccc23)C[C@H](CN2Cc3cc(N4CCNCC4)cnc3C2)O1` [Example 18, 4-[(2R,6S)-2-methyl-6-[(3-piperazin-1-yl-5,7-dihydropyrrolo[3,4-b]pyridin-6-yl)methyl]morpholin-4-yl]pyrazolo[1,5-a]pyridine-7-carbonitrile], 68 nM.
Then `C[C@@H]1CN(c2ccc(C#N)n3nccc23)C[C@H](CN2CCc3ccc(N4CCNCC4)cc3C2)O1` [Example 11, 4-[(2R,6S)-2-methyl-6-[(7-piperazin-1-yl-3,4-dihydro-1H-isoquinolin-2-yl)methyl]morpholin-4-yl]pyrazolo[1,5-a]pyridine-7-carbonitrile], with 192 nM; and `C[C@@H]1CN(c2ccc3c(c2)CN(C[C@H]2CN(c4ccc(C#N)c5ncccc45)C[C@@H](C)O2)C3)C[C@@H](C)N1` (mixture of isomers) [Example 57, Trans-5-[(2R,6S)-2-methyl-6-[[5-[3,5-dimethylpiperazin-1-yl]isoindolin-2-yl]methyl]morpholin-4-yl]quinoline-8-carbonitrile], with 125 nM; and `C[C@@H]1CN(c2ccc(C#N)c3nccnc23)C[C@H](CN2Cc3ccc(N4CCN5CCCCC5C4)cc3C2)O1` (stereo partly drawn) [Example 40, 8-[(2S,6R)-2-[[5-(1,3,4,6,7,8,9,9a-octahydropyrido[1,2-a]pyrazin-2-yl)isoindolin-2-yl]methyl]-6-methyl-morpholin-4-yl]quinoxaline-5-carbonitrile], with 33 nM.

The values are drawn from patent EP3623369A1, “NOVEL MORPHOLINYL AMINE COMPOUNDS FOR THE TREATMENT OF AUTOIMMUNE DISEASE” (F. Hoffmann-La Roche AG, priority 2018, dated 2020).
